Results published in patent US11291675B2, “6′-sialyllactose for use in the treatment of hearing loss” (Rheinische Friedrich-Wilhelms-Universität Bonn, priority 2017, dated 2022).
Entries after “also recorded” stand apart in the source; their conditions may differ.

Tests used:
human THP-1 macrophages = assay: Beads phagocytosis in LPS-activated THP-1 macrophages (flow cytometry); format: cell-based; conditions: THP-1 macrophages activated by 3 μg/ml LPS, 24 hours; 0.5 μM test substance; vs LPS alone
Protocol: The effect of 6′- and 3′-sialyllactose on beads phagocytosis was determined in the human mononuclear phagocyte cell line THP-1. The human mononuclear phagocyte cell line THP-1 was maintained in RPMI medium supplemented with 1% L-glutamine, 1% Penicillin/Streptomycin and 1% heat-inactivated chicken serum, at 5% CO2 and 37° C. For passaging, the cells were transferred to a 50 mL Falcon tube and centrifuged at 1300 rpm for 3 min. The supernatant was removed and the pellet was re-suspended in 5 mL of warm medium. For differentiation into macrophage-like cells, the cell density was adjusted to approximately 1×10^6 cells/mL. The cell suspension was mixed with 10 ng/mL PMA (Phorbol 12-myristate 13-acetate, Sigma) and distributed in volumes according to each experiment. Cells were incubated for 48 h, washed twice with medium and then cultured in medium for additional 48 h without PMA. For experimentation THP-1 macrophages were cultured in RPMI medium supplemented with 1% L-glutamine, 1% Penicillin/Streptomycin and 1% heat-inactivated chicken serum, at 5% CO2 and 37° C. […]
Beads phagocytosis was analyzed by flow cytometry (BD FACSCalibur) by quantification of the percentage of cells having ingested 2 or more beads.

[1] = tested on: CD68+ mononuclear phagocytes in the spiral ganglion; assay: Macrophage activation (CD68+ cells) in the spiral ganglion, animal model of antibiotic-induced hearing loss; format: in vivo, mouse; conditions: seven consecutive days
Protocol: To determine the effect of 6′-sialyllactose on macrophage activation in the inner ear, one-week old C57BL/6 pubs of mice were treated subcutaneously with either 50 μl PBS, 50 μl of 200 mg/kgbw neomycin (Neo, Sigma, N5285) in PBS, or 50 μl of 200 mg/kgbw neomycin (Sigma, N5285) plus 100 mg/kgbw 6′-sialyllactose (Carbosynth, OS04398) in PBS or only PBS as vehicle control for seven consecutive days. Mice were sacrificed two weeks after the last injection.
For further investigations, cochleae of the mice were isolated, post-fixed in 4% paraformaldehyde (PFA), decalcified in 5% EDTA, incubated in 30% sucrose until fully soaked, embedded in a cryoprotectant and cut into 20 μm thin slices from the apex to the base of the cochlea with a cryostat. For quantification of the macrophage activation in the cochlea, cryosections from different levels of the cochlea were chosen and co-stained with antibodies against the macrophage activation marker CD68 and the cellular nuclei marker DAPI. […] The area of the spiral ganglion was selected and measured using ImageJ. The CD68-positive cells were counted within the chosen area and the cell density of the macrophage in the spiral ganglion was calculated and normalized to the PBS vehicle treated condition. Data were analyzed by one-way ANOVA with Bonferroni post-hoc correction.

[2] = tested on: hair cells of the middle turn of the cochlea; assay: Hair cell count (Myo7A+ cells) in the cochlea, animal model of antibiotic-induced hearing loss; format: in vivo, mouse; conditions: seven consecutive days
Protocol: One-week old BL6 pubs of mice were treated subcutaneously with either 50 μl PBS, 50 μl of 200 mg/kgbw neomycin (Sigma, N5285) in PBS, or 50 μl of 200 mg/kgbw neomycin (Sigma, N5285) plus 100 mg/kgbw 6′-sialyllactose (Carbosynth, OS04398) in PBS for seven consecutive days. Mice were sacrificed two weeks after the last injection. For further investigations cochlea of the mice were isolated, post-fixed in 4% PFA, decalcified in 5% EDTA, incubated in 30% sucrose until fully soaked, embedded in a cryoprotectant and cut into 20 μm thin slices from the apex to base of the cochlea with a cryostat. For quantification of the hair cell density in the cochlea, cryosections from different levels of the cochlea were chosen and co-stained with antibodies against the hair cell marker Myosin7A (Myo7A) and the cellular nuclei marker DAPI. Images were taken with a confocal microscope and divided into different sections from apex to base of the cochlea. Myosin7a-positive cells were counted in each section.

[3] = tested on: sensory neurons in the spiral ganglion; assay: Sensory neuron density (NeuN+ cells) in the spiral ganglion, animal model of antibiotic-induced hearing loss; format: in vivo, mouse; conditions: seven consecutive days
Protocol: One-week old C57BL/6 pubs of mice were treated subcutaneously with either 50 μl PBS, 50 μl of 200 mg/kgbw neomycin (Sigma, N5285) in PBS, or 50 μl of 200 mg/kgbw neomycin (Sigma, N5285) plus 100 mg/kgbw 6′-sialyllactose (Carbosynth, OS04398) in PBS for seven consecutive days. Mice were sacrificed 2 weeks after the last injection. For further investigations cochlea of the mice were isolated, post-fixed in 4% PFA, decalcified in 5% EDTA, incubated in 30% sucrose until fully soaked, embedded in a cryoprotectant and cut into 20 μm thin slices from the apex to base of the cochlea with a cryostat. For quantification of the sensory neurons in the cochlea, cryosections from different levels of the cochlea were chosen and stained with antibodies for neuronal nuclei (NeuN) and the cellular nuclei marker DAPI. Z-stacks of 3×2 μm images were taken with a confocal microscope and stacks were afterwards combined to maximal projection images. The area of the spiral ganglion was selected and measured using ImageJ.
The NeuN-positive cells of the mice treated with neomycin (Neo), neomycin plus 6′-sialyllactose (Neo+6SL) or vehicle control (PBS) within the chosen area were counted and the neuronal density of the spiral ganglion was calculated and normalized to the PBS treated condition. […] Data were analyzed by one-way ANOVA with Bonferroni post-hoc correction (*p<0.05).

[4] = tested on: human iPS cell-derived sensory neurons co-cultured with human THP1-macrophages; assay: Neural branches length in co-culture of iPS cell-derived sensory neurons and THP1 macrophages; format: cell-based; conditions: neurons plus THP1 macrophages, 100 μM 6′-sialyllactose, 48 hours; vs co-culture without 6′-sialyllactose
Protocol: The effect of 6′-sialyllactose on sensory neural branches was determined in a human co-culture system with induced pluripotent stem cell derived sensory neurons and human THP1-macrophages.
Human sensory neurons were obtained from human induced pluripotent stem (iPS) cells. At day 0, the iPS colonies were detached by collagenase IV, collected by sedimentation, and resuspended in DMEM/F12 medium supplemented by 20% KO serum, 1% nonessential amino acids, 10 μM SB (SB-431542, inhibitor of TGF-beta), 1 μM dorsomorphin, 3 μM CHIR, and 0.5 μM purmorphamine for 2 days. […] Afterwards, the neural stem cells (NSCs) were ready for differentiation. […]
The human THP1 mononuclear phagocyte cell line was maintained in RPMI medium supplemented with 1% L-glutamine, 1% Penicillin/Streptomycin, 1% sodium-pyruvate, 1% heat-inactivated chicken serum, and 1% N2 supplement at 5% CO2 and 37° C. […] For experiments, THP-1 macrophages were scraped, counted and added to the sensory iPS cell-derived neurons in co-culture medium 1:1 ratio (N2B27 medium plus BDNF, GDNF, dbcAMP) and treated with 100 μM 6′-sialyllactose (Carbosynth), that was re-purified by a HPLC-based anion exchange chromatography before use, or vehicle control for another 48 hours. […]

[5] = mice, 200 mg/kgbw neomycin alone s.c., vs PBS

Molecule | relative beads phagocytosis rate (cells having ingested 2 or more beads) (human THP-1 macrophages) | CD68+ cells per area in the spiral ganglion [1, 5] | Myo7A-positive hair cells of the middle turn of the cochlear organ of Corti [2, 5] | NeuN-positive cells in the spiral ganglion [3, 5] | CD68+ macrophages per area in the spiral ganglion (macrophage activation), normalized to PBS ([1]; one-week old C57BL/6 mice, 200 mg/kgbw neomycin plus 100 mg/kgbw 6′-sialyllactose s.c., sacrificed two weeks after last injection, vs neomycin alone) | Myo7A-positive hair cells of the middle turn of the cochlea per slice ([2]; one-week old BL6 mice, 200 mg/kgbw neomycin plus 100 mg/kgbw 6′-sialyllactose s.c., vs neomycin alone) | NeuN-positive cells (neuronal density) in the spiral ganglion, normalized to PBS ([3]; one-week old C57BL/6 mice, 200 mg/kgbw neomycin plus 100 mg/kgbw 6′-sialyllactose s.c., vs neomycin alone) | relative neural branches length [4]
CC(=O)NC1C(O)CC(OC2C(O)C(CO)OC(OC3C(CO)OC(O)C(O)C3O)C2O)(C(=O)O)OC1[C@H](O)[C@H](O)CO (stereo partly drawn) [3′-sialyllactose, reference compound] | had no effect on the LPS-induced uptake of beads; also recorded: only showed a tendency without significance |  |  |  |  |  |  | 
NC[C@@H]1O[C@H](O[C@H]2[C@@H](O)[C@H](O[C@@H]3[C@@H](O)[C@H](N)C[C@H](N)[C@H]3O[C@H]3O[C@H](CN)[C@@H](O)[C@H](O)[C@H]3N)O[C@@H]2CO)[C@H](N)[C@@H](O)[C@@H]1O [neomycin, reference compound] |  | strongly increases the number of mononuclear phagocytes | strong reduction | reduction |  |  |  | 
Neu5Ac-α(2→6)-Gal-β(1→4)-Glc [6′-sialyllactose] | reduced the phagocytic uptake of microsphere beads; also recorded: reduced phagocytosis of beads |  |  |  | slight attenuation of macrophage activation; also recorded: might partially be prevented | partially rescued; also recorded: reduced the neomycin-induced loss of the hair cells | less present; also recorded: might reduce the neomycin-induced loss of the sensory neurons | could prevent the reduction in neural branches length
